In PubChem BioAssay AID1259407 (Chemical Carcinogenesis Research Information System (CCRIS), 2018) one finds mutagenic call data, which are given here for five compounds.

The test system of this data set is CCRIS mutagenicity, Ames/micronucleus/aberration tests. Put plainly: CCRIS mutagenicity studies.
The mark [1] stands for this setting: Test System: AMES SALMONELLA TYPHIMURIUM, Strain/Indicator: TA98, Metabolic Activation: HAMSTER, LIVER, S-9, AROCLOR 1254 (10%), Method: PREINCUBATION
Where [2] appears, read: Test System: AMES SALMONELLA TYPHIMURIUM, Strain/Indicator: TA98, Metabolic Activation: NONE, Method: PREINCUBATION
[3] abbreviates: Test System: AMES SALMONELLA TYPHIMURIUM, Strain/Indicator: TA98, Metabolic Activation: RAT, LIVER, S-9, AROCLOR 1254 (10%), Method: PREINCUBATION
[4] abbreviates: Test System: AMES SALMONELLA TYPHIMURIUM, Strain/Indicator: TA100, Metabolic Activation: HAMSTER, LIVER, S-9, AROCLOR 1254 (10%), Method: PREINCUBATION
[5] abbreviates: Test System: AMES SALMONELLA TYPHIMURIUM, Strain/Indicator: TA100, Metabolic Activation: NONE, Method: PREINCUBATION
Where [6] appears, read: Test System: AMES SALMONELLA TYPHIMURIUM, Strain/Indicator: TA100, Metabolic Activation: RAT, LIVER, S-9, AROCLOR 1254 (10%), Method: PREINCUBATION
[7] abbreviates: Test System: AMES SALMONELLA TYPHIMURIUM, Strain/Indicator: TA1535, Metabolic Activation: HAMSTER, LIVER, S-9, AROCLOR 1254 (10%), Method: PREINCUBATION
Where [8] appears, read: Test System: AMES SALMONELLA TYPHIMURIUM, Strain/Indicator: TA1535, Metabolic Activation: NONE, Method: PREINCUBATION
Setting [9] is: Test System: AMES SALMONELLA TYPHIMURIUM, Strain/Indicator: TA1535, Metabolic Activation: RAT, LIVER, S-9, AROCLOR 1254 (10%), Method: PREINCUBATION
Setting [10] is: Test System: AMES SALMONELLA TYPHIMURIUM, Strain/Indicator: TA1537, Metabolic Activation: HAMSTER, LIVER, S-9, AROCLOR 1254 (10%), Method: PREINCUBATION
Setting [11] is: Test System: AMES SALMONELLA TYPHIMURIUM, Strain/Indicator: TA1537, Metabolic Activation: NONE, Method: PREINCUBATION
Where [12] appears, read: Test System: AMES SALMONELLA TYPHIMURIUM, Strain/Indicator: TA1537, Metabolic Activation: RAT, LIVER, S-9, AROCLOR 1254 (10%), Method: PREINCUBATION

Activity calls are given as the source filed them. The rule behind the calls is not given here.

For `O=P(OC(CCl)CCl)(OC(CCl)CCl)OC(CCl)CCl`, the mutagenic call (Test System: AMES SALMONELLA TYPHIMURIUM, Strain/Indicator: TA97, Metabolic Activation: HAMSTER, LIVER, S-9, AROCLOR 1254 (10%), Method: PREINCUBATION) was “active; positive”; the mutagenic call (Test System: AMES SALMONELLA TYPHIMURIUM, Strain/Indicator: TA97, Metabolic Activation: NONE, Method: PREINCUBATION) was “inactive; negative”; the mutagenic call (Test System: AMES SALMONELLA TYPHIMURIUM, Strain/Indicator: TA97, Metabolic Activation: RAT, LIVER, S-9, AROCLOR 1254 (10%), Method: PREINCUBATION) is “inactive; negative”; the mutagenic call under setting [1] was “inactive; negative”; the mutagenic call under setting [2] is “inactive; negative”; the mutagenic call under setting [3] is “inactive; negative”. Besides, the mutagenic call is “active; positive” under setting [4]; “inactive; negative” under setting [5]; “inactive; negative” (Test System: AMES SALMONELLA TYPHIMURIUM, Strain/Indicator: TA100, Metabolic Activation: RAT, LIVER, HEPATOCYTES, PHENOBARBITAL, Method: PREINCUBATION); “active; positive” (Test System: AMES SALMONELLA TYPHIMURIUM, Strain/Indicator: TA100, Metabolic Activation: RAT, LIVER, HEPATOCYTES, Method: PREINCUBATION); “active; positive” (Test System: AMES SALMONELLA TYPHIMURIUM, Strain/Indicator: TA100, Metabolic Activation: RAT, LIVER, MICROSOMES, PHENOBARBITAL, Method: STANDARD PLATE); “inactive; negative” under setting [6]. Moreover, the mutagenic call (Test System: AMES SALMONELLA TYPHIMURIUM, Strain/Indicator: TA100, Metabolic Activation: RAT, LIVER, S-9, PHENOBARBITAL, Method: STANDARD PLATE) is “active; positive”; the mutagenic call (Test System: AMES SALMONELLA TYPHIMURIUM, Strain/Indicator: TA100, Metabolic Activation: RAT, LIVER, S-9, Method: STANDARD PLATE) was “inactive; negative”; the mutagenic call under setting [7] was “active; positive”; the mutagenic call under setting [8] is “inactive; negative”; the mutagenic call under setting [9] was “active; positive”; the mutagenic call under setting [10] is “inactive; negative”. The mutagenic call is, setting by setting: under setting [11], “inactive; negative”; under setting [12], “inactive; negative”; (Test System: CHINESE HAMSTER V-79, Strain/Indicator: V-79/6-THIOGUANINE, Metabolic Activation: RAT, LIVER, MICROSOMES, PHENOBARBITAL) “inactive; negative”; (Test System: UDS RODENT HEPATOCYTES, Strain/Indicator: THY INCORP (NON-S-PHASE), Metabolic Activation: RAT, LIVER, HEPATOCYTES, PHENOBARBITAL, Method: LIQUID SCINTILLATION COUNTING) “inactive; negative”; (Test System: UDS RODENT HEPATOCYTES, Strain/Indicator: THY INCORP (NON-S-PHASE), Metabolic Activation: RAT, LIVER, HEPATOCYTES, Method: LIQUID SCINTILLATION COUNTING) “inactive; negative”.
Turning to `Nc1ccc2c(n1)[nH]c1ccccc12`, the mutagenic call is “active; positive” (Test System: AMES SALMONELLA TYPHIMURIUM, Strain/Indicator: TA98, Metabolic Activation: MONKEY, LIVER, S-9, Method: PREINCUBATION); “active; positive” (Test System: AMES SALMONELLA TYPHIMURIUM, Strain/Indicator: TA98, Metabolic Activation: RAT, LIVER, S-9, AROCLOR 1254, Method: PREINCUBATION); “active; positive” (Test System: AMES SALMONELLA TYPHIMURIUM, Strain/Indicator: TA100, Metabolic Activation: RAT, LIVER, S-9, AROCLOR 1254, Method: PREINCUBATION); “active; positive” (Test System: AMES SALMONELLA TYPHIMURIUM, Strain/Indicator: YG1019, Metabolic Activation: RAT LIVER S-9, AROCLOR, Method: PREINCUBATION).
For the compound `CSC(=O)c1cccc2nnsc12`, the mutagenic call was “inactive; negative; strain is not given by dpr reviewer” (End Point: In vivo micronucleus, Test System: Femoral bone marrow polychromatic erythrocytes, Species: Mouse, Strain/Sex: Female, Route: Gavage) and “inactive; negative; strain is not given by dpr reviewer” (End Point: In vivo micronucleus, Test System: Femoral bone marrow polychromatic erythrocytes, Species: Mouse, Strain/Sex: Male, Route: Gavage).
In the case of `CCCCOCC=O`, the mutagenic call reads like this: (Test System: AMES SALMONELLA TYPHIMURIUM, Strain/Indicator: TA97A, Metabolic Activation: NONE, Method: STANDARD PLATE) “inactive; negative”; (Test System: AMES SALMONELLA TYPHIMURIUM, Strain/Indicator: TA97A, Metabolic Activation: RAT, LIVER, S-9, AROCLOR 1254, Method: STANDARD PLATE) “inactive; negative”; (Test System: AMES SALMONELLA TYPHIMURIUM, Strain/Indicator: TA98, Metabolic Activation: NONE, Method: STANDARD PLATE) “inactive; negative”; (Test System: AMES SALMONELLA TYPHIMURIUM, Strain/Indicator: TA98, Metabolic Activation: RAT, LIVER, S-9, AROCLOR 1254, Method: STANDARD PLATE) “inactive; negative”; (Test System: AMES SALMONELLA TYPHIMURIUM, Strain/Indicator: TA100, Metabolic Activation: NONE, Method: STANDARD PLATE) “inactive; negative”; (Test System: AMES SALMONELLA TYPHIMURIUM, Strain/Indicator: TA100, Metabolic Activation: RAT, LIVER, S-9, AROCLOR 1254, Method: STANDARD PLATE) “inactive; negative”. Also, the mutagenic call by setting is: (Test System: AMES SALMONELLA TYPHIMURIUM, Strain/Indicator: TA102, Metabolic Activation: NONE, Method: STANDARD PLATE) “inactive; negative”; (Test System: AMES SALMONELLA TYPHIMURIUM, Strain/Indicator: TA102, Metabolic Activation: RAT, LIVER, S-9, AROCLOR 1254, Method: STANDARD PLATE) “inactive; negative”; (Test System: CHINESE HAMSTER OVARY, Strain/Indicator: CHO-AS52/6-THIOGUANINE, Metabolic Activation: NONE) “inactive; negative”; (Test System: CHINESE HAMSTER V-79, Strain/Indicator: V-79 (HPRT)/6-THIOGUANINE, Metabolic Activation: NONE) “active; positive”.
Consider `CCN(CC)CCO`, for which the mutagenic call is, setting by setting: under setting [1], “inactive; negative”; under setting [2], “inactive; negative”; under setting [3], “inactive; negative”; under setting [4], “inactive; negative”; under setting [5], “inactive; negative”; under setting [6], “inactive; negative”. The mutagenic call under setting [7] was “inactive; negative”; the mutagenic call under setting [8] was “inactive; negative”; the mutagenic call under setting [9] is “inactive; negative”; the mutagenic call under setting [10] was “inactive; negative”; the mutagenic call under setting [11] is “inactive; negative”; the mutagenic call under setting [12] is “inactive; negative”.
